In patent publication US20080305520A9, “Mechanosensitive ion channels and methods of use” (priority 2004, published 2008):
“Also recorded” adds a separate entry of the source.

How the values were obtained:
prostate tumor cell = conditions: medium containing serum; Cancer Letters 145 (1999); cited from earlier work
MscCa in PC3 cells = molecular target: T1, MscCa in PC3 cells (Homo sapiens, UniProt P48995); experiment: Cell-attached patch-clamp recording of MscCa activity in PC3 cells; format: cell-based
T1 construct: host or cells: PC3 human prostate tumor cells
Experimental: PC3 cell lines were grown in RPM1 1640 medium with 25 mM Hepes and glutamine, supplemented with 7% fetal calf serum, I mM sodium pyruvate, 4.5 g/L glucose, penicillin G (10,000 U/ml) and streptomycin sulfate (10,000 tg/ml) at 37° C. in a humidified 95% 02-5% C02 atmosphere. For patch-lamp studies, cells were seeded at low density on sterile coverslips placed in 33 mm culture dishes and tested during the next 2 - 5 days. Patch clamp recording was conducted as follows. Standard cell-attached patch-clamp recording was used to record single channel currents. The pipettes were made from thin-walled borosilicate glass (World Precision Instruments, Stevenage, UK) with an outside tip diameter of -2 Wm. Immediately prior to patch clamping, a cover slip was removed from the culture dish, glued with dots of silcone to a 35 mm culture, and placed in a microscope stage holder. Cells were visualized with an IM35 Zeiss microscope with fluorescence and Normaski optics. A pressure-clamp (McBride, D.W., Jr. & Hamill, O. P., PflLigers Archiv. 421, 606-612 (1992)) was used to apply pressure and suction protocols to achieve the initial tight seal and stimulate MS channels. […] This voltage-dependent gating of the open channel is also a characteristic of the prototypical MscCa, native to the frog oocyte (Taglietti et al., J. Physiol., 407, 311 (1988)), identified as being formed by the transient receptor channel protein I (TRPCI). The current-voltage relationship of the prostate MscCa measured with a 100 mM K+, zero Ca^2+in the pipette solution indicates an inwardly rectifying single channel conductance (-70 pS chord conductance at -100 mV and 20 pS at 50 mV) (Fig. • SB) that is essentially identical to that of the oocyte MscCa indicating a common pore structure. […] In the “sustained mode” (SM), the channels remained open for the duration of stimulation (Fig. SC), while in the “transient mode” (TM) the channels closed rapidly (cO.5 s) (FIG. 5C). […]

[1] = tested on: fish epithelial keratocyte; conditions: Lee et al., Nature 400 (1999), cited from earlier work
MscCa = experiment: Pressure-clamp cell-attached patch recording of MscCa currents in Xenopus oocytes; format: cell-based; conditions: oocyte cell-attached patches; EGTA left out of pipette solution
PC3 cells = experiment: PC3 cell migration by time-lapse videomicroscopy; format: cell-based, human; conditions: for PC3 cell migration: one hour intervals before, during and after exposure; for reversibility of migration block with washout: up to 1 hour
Experimental: The effect of the three anti-MscCa agents on PC3 cell migration was tested using time-lapse videomicroscopy to record the trajectory of the migrating prostate tumor cells. Selected video frames were prepared at 15 minute intervals, showing a cluster of 7 PC3 cells as they migrate out from the cluster. […] All three agents blocked cell migration.
(§1) Time-lapse videomicroscopy and Ca 2-imaging were conducted as follows. Cell migration was monitored by time-lapse videomicroscopy using Nomarski optics with an Epifluorescent microscope (TE 200). The time-lapse images were acquired and saved at 5 minute intervals using Metafluor software. Calcium imaging assays were carried out on cells previously loaded with Fura-2 AM (5 tm for 30 minutes). Time-lapse fluorescence images were consecutively acquired at 340 and 380 wavelengths and transmission (DIC) at intervals of I minute using Metafluor. Data analysis was carried out using Metamorph (Version 6. 1) and Excel] 2000. Conversion of pixels to gm based on a calibrated slide to represent the cell trajectories in the field.
(§2) The day before transfection cells were seeded at 50-60% density on sterile coverslips in a 6 well plate in culture medium without antibiotic. Transfection of 100 nM of double stranded siRNA Cy3 labeled per well (Ambion #731 1 and negative control, Ambion, Austin, TX was carried using Lipofectamine 2000 (Invitrogen, Carlsbad, CA) according to the manufacturer's instructions for siRNA transfections. Cells were stored in the incubator after the addition of the complexes and 7% FCS medium without antibiotic was added after the first 6 hours of transfection. The next day the supernatant was removed and normal culture medium replaced. Cells were tested by patch clamp and videomicroscopy during the next 48-72 hours, using the patch clamp and videomicroscopy methods described above in examples 4 and 5. […] The foregoing detailed description and examples have been given for clarity of understanding only. No unnecessary limitations are to be understood therefrom. The invention is not limited to the exact details shown and described, for variations obvious to one skilled in the art will be included within the invention defined by the claims.

[2] = tested on: [Ca^2+]i fluctuations in migrating PC3 cells; experiment: Fura-2 Ca2+ imaging of [Ca2+]i fluctuations in migrating PC3 cells; format: cell-based, human; conditions: for sustained and transient [Ca^2+]i oscillations: same concentrations that blocked/reduced MscCa activity and PC3 cell migration, 9 cells, 3 experiments
Experimental: Two distinct types of [Ca^2+]i fluctuations were observed; a sustained Ca^2+)1 that increased from the front of the cell to the rear and was maintained for the duration of the locomotion cycle (up to 3 hours) measured from tether formation to tether release; and a fast transient [Ca2+i wave that spread rapidly through out the cell and lasted <1 minute (the time interval between frames) with an average frequency of 6 waves in 30 minutes. Both sustained and transients [Ca2+]i fluctuations were associated with moving cells. All three anti-MscCa agents described above, abolished both forms of [Ca^2+]i oscillations at the same concentrations that blocked/reduced MscCa activity and PC3 cell migration (9 cells, 3 experiments). Again, whereas with Gd and GsmTx4 the block was reversible, there was no recovery after the anti-TRPCI Ab washout.
as §1, §2

prostate tumor cells = conditions: cited from earlier work
[3] = tested on: Ca^2+-activated K+channel; experiment: Delayed outward channel currents after MscCa activation, PC3 cell-attached patch; format: cell-based, human; conditions: 50 nM charybdotoxin in the pipette solution; 1 mM external Ca^2+
Experimental: PC3 cell lines were grown in RPM1 1640 medium with 25 mM Hepes and glutamine, supplemented with 7% fetal calf serum, I mM sodium pyruvate, 4.5 g/L glucose, penicillin G (10,000 U/ml) and streptomycin sulfate (10,000 tg/ml) at 37° C. in a humidified 95% 02-5% C02 atmosphere. For patch-lamp studies, cells were seeded at low density on sterile coverslips placed in 33 mm culture dishes and tested during the next 2 - 5 days. Patch clamp recording was conducted as follows. Standard cell-attached patch-clamp recording was used to record single channel currents. The pipettes were made from thin-walled borosilicate glass (World Precision Instruments, Stevenage, UK) with an outside tip diameter of -2 Wm. Immediately prior to patch clamping, a cover slip was removed from the culture dish, glued with dots of silcone to a 35 mm culture, and placed in a microscope stage holder. Cells were visualized with an IM35 Zeiss microscope with fluorescence and Normaski optics. […] The current-voltage relationship of the prostate MscCa measured with a 100 mM K+, zero Ca^2+in the pipette solution indicates an inwardly rectifying single channel conductance (-70 pS chord conductance at -100 mV and 20 pS at 50 mV) (Fig. • SB) that is essentially identical to that of the oocyte MscCa indicating a common pore structure. […]

T1 sequence (P48995 whole entry): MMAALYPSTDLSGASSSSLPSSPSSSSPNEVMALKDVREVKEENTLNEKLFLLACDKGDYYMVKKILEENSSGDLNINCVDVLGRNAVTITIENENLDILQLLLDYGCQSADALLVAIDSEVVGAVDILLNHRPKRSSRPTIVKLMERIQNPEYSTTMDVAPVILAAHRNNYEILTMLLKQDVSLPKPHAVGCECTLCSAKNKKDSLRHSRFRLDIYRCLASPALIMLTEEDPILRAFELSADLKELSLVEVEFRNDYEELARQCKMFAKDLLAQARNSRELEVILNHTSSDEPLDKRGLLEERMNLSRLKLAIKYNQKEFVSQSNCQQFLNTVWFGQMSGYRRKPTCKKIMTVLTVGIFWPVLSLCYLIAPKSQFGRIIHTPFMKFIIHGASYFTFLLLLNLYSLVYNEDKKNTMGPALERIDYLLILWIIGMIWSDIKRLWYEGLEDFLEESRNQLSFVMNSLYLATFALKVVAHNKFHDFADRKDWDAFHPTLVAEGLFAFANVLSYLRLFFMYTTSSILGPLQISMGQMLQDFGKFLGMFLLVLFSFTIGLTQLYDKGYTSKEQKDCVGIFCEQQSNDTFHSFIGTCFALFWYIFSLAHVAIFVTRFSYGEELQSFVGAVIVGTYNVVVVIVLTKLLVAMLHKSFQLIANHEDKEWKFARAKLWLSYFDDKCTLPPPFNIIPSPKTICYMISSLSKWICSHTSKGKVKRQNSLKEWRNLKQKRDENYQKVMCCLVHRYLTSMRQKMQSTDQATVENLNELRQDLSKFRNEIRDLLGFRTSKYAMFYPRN

In the case of `[Gd+3]` [Gd^3+, gadolinium ion], the “prostate tumor cell motility” value (prostate tumor cell) is given as “enhanced rather than inhibited”, the MscCa activity (MscCa in PC3 cells; Gd^3+ also included in the pipette-tip solution, 20 out of 20 patches) is given as “abolished” and the “MscCa patch current (channel block)” value (MscCa in PC3 cells; Gd^3+ in back solution at 5 µM, -3 minutes after tight seal, pressure steps) is given as “block the channel”. For the same molecule, the “Ca^2+ transients” value [1] was “abolishes”, the cell migration ([1]; prevents rear detachment) was “inhibiting” and the “block of native and TRPC1-expressed MscCa” value (MscCa) was “equally effective in blocking”. The PC3 cell migration (PC3 cells; Gd^3+) was “blocked”, the “reversibility of migration block with washout” value (PC3 cells) was “reversible” and the “sustained and transient [Ca^2+]i oscillations” value [2] was “abolished”. For the same molecule, the “reversibility of block of [Ca^2+]i oscillations after washout” value [2] was “reversible”.
For `NC1=N[C@H](O)[C@H]2[C@H]3O[C@]4(O)O[C@@H]([C@@H](O)[C@@]2(N1)[C@@H]4O)[C@]3(O)CO` [tetrodotoxin], the invasiveness (prostate tumor cells) is listed as “reduce invasiveness”.
With “GCLEFWWKCNPNDDKCCRPKLKCSKLFKLCNFSSG [GsmTx-4]” the MscCa activity (MscCa in PC3 cells; 3 μM GsmTx-4 in pipette, SM or TM gating mode) was “blocked; also recorded: effective in blocking”, the PC3 cell migration (PC3 cells; GsMTx-4 3 μM) was “blocked” and the “reversibility of migration block with washout” value (PC3 cells) was “reversible”. For the same molecule, the “sustained and transient [Ca^2+]i oscillations” value [2] was “abolished” and the “reversibility of block of [Ca^2+]i oscillations after washout” value [2] was “reversible”.
For “charybdotoxin (QFTNVSCTTSKECWSVCQRLHNTSRGKCMNKKCRCYS)”, the “delayed activation of outward channel currents after MscCa inward currents” value [3] was “absent”.
